Source: patent US11414377B2, “Modulator of metabotropic and ionotropic transmembrane receptors and use thereof” (IBD THERAPEUTICS LLC, priority 2018, dated 2022)

Legend:
[1] = test system: male balb/c mice; test: Motility of the gastrointestinal tract in vivo (activated carbon transit); conditions: for The time of ejection of activated carbon: intact 73.8 ± 3.7
Procedure: The effect of Compound I on the motility of the GIT was studied by a standard procedure (Li Y. Y., Li Y. N., Ni J. B., Chen C. J., Lv S., Chai S. Y., Wu R. H., Yüce B., Storr M. Involvement of cannabinoid-1 and cannabinoid-2 receptors in septic ileus//Neurogastroenterol Motil. 2010. V. 22. P. 350-388). The study was carried out on male balb/c mice, the individual weight of which deviates from the mean value within the sex of no more than ±20%. The animals were given the intragastric administration of a solution of activated carbon (50 mg/ml, in 10 ml/kg) and the rate (in minutes) of the movement of the activated carbon on the intestine of animals was evaluated. Compounds I was administered once intragastrically 1 hour prior to administration of activated carbon. As the comparative preparations, hyoscin butyl bromide (Buscopan) at a dose of 3 mg/kg, trimebutine (Trimedat) at a dose of 33 mg/kg, mebeverine (Duspatalin) at a dose of 30 mg/kg were used. The obtained data were checked using the Grubb's test for the presence of the largest or smallest abnormal observation (ejection) in the sample. Values determined “to be eliminated” in this test were not used for further assay. For all data, descriptive statistics was used: a mean value (M) and standard error of the mean value (m) were counted up. The normality of distribution of the values obtained in the course of the experiment was checked with the aid of the Kolmogorov-Smirnov test. In the case of normal distribution, Student's t-test (t-test) was used to evaluate the inter-group distinctions. In the case of the distribution that is other than the normal one for the comparison of several groups, the Kruskall-Wallis test (with Dann's post hoc test) was used. Distinctions were determined at 5% at a level of confidence.

[2] = Pharmacokinetics and tissue bioavailability after oral administration to rats; type: in vivo; conditions: oral 10 mg/kg (therapeutic dose)
Procedure: To confirm low systemic availability of Compound 1, the study of pharmacokinetics and bioavailability of Compound 1 was carried out after the oral administration to rats in a dose of 10 mg/kg. The study was carried out on 18 male Vistar rats. Blood sampling in the animals was carried out at given time points for 24 h after the administration of the preparation. The content of Compound 1 in plasma samples was analyzed by HPLC-MS/MS, the […] was 1 ng/ml.

[3] = test system: guinea pigs of Agouti line; test: Citrate cough model in guinea pigs, inhalation administration; type: in vivo; conditions: 0.25 mg/kg by inhalation 15 minutes prior to citric acid
[4] = test system: male and female mice; test: Acute toxicity at single administration, mice; type: in vivo; conditions: for Body weight gain / Death of animals: male and female; for Death of animals: 14 days observation
Procedure: The acute toxicity study was performed on 24 male and 24 female rats, and also on 24 male and 24 female mice. Before the administration of the Compound I, the body weight of the animals was recorded, after 1 hour of the administration, the state of the experimental animals was observed. Then, the body weights of rats and mice were recorded daily for 14 days after the administration of the substance, and the examination was carried out to detect the cases of death and abnormality in the state of the animals.
Compound I was administered to rats and mice intragastrically at a dose of 5000 mg/kg, intraperitoneally—at a dose of 2000 mg/kg. Control groups (female and male objects) were received a solvent (0.1% Tween-80 solution in water).

## O=C(Cc1ccc(O)cc1)N[C@@H](Cc1ccccc1)C(=O)NCCc1ccccc1 [Compound I, 2-phenylethylamide N-(p-hydroxyphenylacetyl)phenylalanine]
[1]; 1.5 mg/kg once intragastrically 1 hour prior to activated carbon
  The time of ejection of activated carbon: 108.7 ± 9.28 min
[1]; 3 mg/kg once intragastrically 1 hour prior to activated carbon
  The time of ejection of activated carbon: 130.4 ± 11.42 min
[1]; 7.5 mg/kg once intragastrically 1 hour prior to activated carbon
  The time of ejection of activated carbon: 123.4 ± 11.43 min
[1]; 15 mg/kg once intragastrically 1 hour prior to activated carbon
  The time of ejection of activated carbon: 147.6 ± 8.94 min
[1]; 1.5-15 mg/kg intragastrically, versus intact
  Increase of the time of activated carbon evacuation: 1.5-2 times
[2]
  Penetration into the brain: does not penetrate into the brain of rats
[3]
  Suppression of cough (% from the control of pathology) in the chamber: 39.1%
[3]; control 48.8 ± 4
  A number of cough attacks during the inhalation for 10 minutes: 29.7 ± 2.7*&
[4]; intragastrically 5000 mg/kg, intraperitoneally 2000 mg/kg
  Differences in the spontaneous behaviour, responses to the caused reactions: not observed
[4]; intragastrically 5000 mg/kg
  Body weight gain: lag in body weight gain
  Death of animals: did not cause death of animals
[4]; intraperitoneally 2000 mg/kg
  Body weight gain: lag in body weight gain
  Death of animals: did not cause death of animals
